Experiment: Plasma kinetics of ivermectin after spot-on application at different doses in combination with fipronil to dogs
Type: in vivo, dog
Method: This study was undertaken in order to assess the linearity of the percutaneous passage of ivermectin after spot-on application of different doses of ivermectin (100, 250, 500 and 1000 μg.kg^−1) in combination with fipronil (10 mg.kg^−1) to the dog. Furthermore, the possibility of control both heartworms and gastro-intestinal nematodes was evaluated.
Twelve male Beagle dogs (allocated into 4 groups of 3 animals were applied spot-on formulations combining ivermectin (0.1%, 0.25%, 0.5% and 1%) and fipronil (10%) at a dose rate of 0.1 ml.kg^−1 (i.e. 100, 250, 500 and 1000 μg.kg^−1 of ivermectin and 10 mg.kg^−1 of fipronil).
The formulations are as follows: […]
The formulations were applied at one spot onto the skin between the shoulder blades.
Blood samples were collected at intervals up to 56 days post treatment.
The determination of ivermectin was carried out by HPLC after an automated solid/liquid extraction, using fluorescence detection, with limit of quantification of 100 pg.ml^−1. The determination of fipronil and its sulfone metabolite (RM1602) was carried out by HPLC with UV detection, with a limit of quantification of 20 ng.ml^−1 for fipronil and RM1602. Both methods were validated in terms of specificity, extraction recovery, linearity, precision and accuracy.

SMILES: N#Cc1nn(-c2c(Cl)cc(C(F)(F)F)cc2Cl)c(N)c1S(=O)(=O)C(F)(F)F [RM1602]
- plasma concentrations compared with those usually observed in dogs treated at the same dose in previous studies (spot-on, fipronil 10 mg.kg^−1, dogs): significantly inferior

SMILES: N#Cc1nn(-c2c(Cl)cc(C(F)(F)F)cc2Cl)c(N)c1[S+]([O-])C(F)(F)F (centres unmarked) [fipronil, 1-[2,6-Cl2-4-CF3 phenyl]-3-CN-4-[SO—CF3]-5-NH2 pyrazole]
- plasma concentrations compared with those usually observed in dogs treated at the same dose in previous studies (dog, in vivo): significantly inferior
